The text below walks through data of patent US5411960A, “Substituted pyrroloanthracenes and -diones” (Bayer Aktiengesellschaft, priority 1993, dated 1995).

For the experiment, the system named is human T cells (monocyte-free). Description: Inhibition of 5-HT-dependent T cell proliferation. Type of experiment: cell-based. Conditions: inhibition of T cell proliferation stimulated with PWM (1:200) and 5-HT (100 μm), 3H-thymidine incorporation, 7 days, test range 33 μM-0.1 μM. From the text: The in vitro activity of the compounds according to the invention results from their capability to inhibit T cell proliferation, which is previously stimulated by serotonin.
Peripheral mononuclear blood cells (PBMC) are obtained from the buffy coat of the blood of healthy subjects. After isolation by means of isolymph gradients (Pharmacia), the PBMC are washed twice and used directly. Purified T cells are obtained by E rosette formation with sheep erythrocytes [cf. Blue, M. -L., J. F. Daley, H. Levine, K. A. Craig and S. F. Schlossmann, 1986, Biosynthesis and surface expression of T8 by peripheral blood T4+ cells in vitro, J. Immunol. 137, 1202]. Monocytes are partially removed by adhesion to tissue culture plates or flasks. PBMC, T cells or purified T cells (depleted in monocytes) at 5×10^5 /ml, 100 µl/well are cultured in RPMI 1640 medium with 10% fetal calf serum (GIBCO) and L-glutamine in 96-well microculture plates (Becton-Dickinson) under a 5% CO2 atmosphere at 37° C. for 7 days. The cultures are treated with 1 μCi of ^3 H-thymidine for 6 h on the 7th day and collected on filter paper, and the incorporated radioactivity is determined by means of liquid scintillation counting.
The test substances are dissolved in 10 mM HCl in order to achieve a final concentration of 1 mM in each case. The compounds are diluted serially 3× with medium in order to obtain a final concentration between 33 μM-0.1 μM. PWM (1:200, pokeweed mitogen) and 5-HT (100 μm, serotonin), which contain the test substances, are added to monocyte-free human T cells. The positive control (maximum proliferation ) is obtained from cultures containing T cells, PWM and 5-HT. The negative control (minimal proliferation) is obtained from cultures containing T cells and PWM without 5-HT. The inhibitory activity of the test substances is expressed as the IC50 in μM. (see also WO 92/04015)
In general terms: Dividing cells build labelled thymidine or BrdU into new DNA.

Turning to `O=C1C2C3c4ccccc4C(c4ccccc43)C2C(=O)N1CCCN1CC2CC=CC(CO)C2C1` (centres unmarked) [Example 3], it took 30 µM to reach half-maximal inhibition (IC50). To `O=C1C2C3c4ccccc4C(c4ccccc43)C2C(=O)N1CCCN1CC2C3C=CC(C4CC34)C2C1` (centres unmarked) [Example 1, 13-[3-(4,6-Etheno-perhydro-cycloprop[f]isoindol-2-yl)propyl]-9,10-dihydro-9,10-[3', 4']-pyrroloanthracene-12,14[11H,15H) -dione] belongs 5 µM; to `O=C1C2C3c4ccccc4C(c4ccccc43)C2C(=O)N1CCCN1CC2CCN(c3ccccc3)C2C1` (centres unmarked) [Example 2], 5 µM; to `O=C1C2C3c4ccccc4C(c4ccccc43)C2C(=O)N1CCCN1CC2C3C=CC(C4CCC34)C2C1` (centres unmarked) [Example 5], 4 µM. Take `O=C1C2C3c4ccccc4C(c4ccccc43)C2C(=O)N1CCCN1CC[Si](c2ccccc2)(c2ccccc2)CC1` (centres unmarked) [Example 4]: the midpoint of inhibition, the IC50, lay at 20 µM. The result for `C1=CC2C3CCC3C1C1CN(CCCN3CC4C5c6ccccc6C(c6ccccc65)C4C3)CC21` (centres unmarked) [Example 11] reads 1 µM.

Turning to `c1ccc(CN2CCOC3CN(CCCN4CC5C6c7ccccc7C(c7ccccc76)C5C4)CC32)cc1` (centres unmarked) [Example 9], it took 20 µM to reach half-maximal inhibition (IC50). The result for `c1ccc(N2CCC3CN(CCCN4CC5C6c7ccccc7C(c7ccccc76)C5C4)CC32)cc1` (centres unmarked) [Example 10] reads 1 µM.
